Laboratory results as given in ChEMBL document CHEMBL1275557, “First countrywide survey of acquired metallo-beta-lactamases in gram-negative pathogens in Italy” (2008).
In brackets after ≈: the same amount, converted by molar mass.

Legend:
Assay type in all cases: functional
Pseudomonas aeruginosa [1] = assay: Antibacterial activity against VIM-2 producing Pseudomonas aeruginosa clone B2 isolate VA-06X-38 by Etest method
Pseudomonas aeruginosa [2] = assay: Antibacterial activity against VIM-1 producing Pseudomonas aeruginosa clone D1 isolate VA-06X-63 by Etest method
Pseudomonas aeruginosa [3] = assay: Antibacterial activity against VIM-1 producing Pseudomonas aeruginosa clone A2 isolate NA-14X-21 by Etest method
[4] = Antibacterial activity against nonreplicate Burkholderia cepacia complex clinical isolate by Etest method
Pseudomonas aeruginosa [5] = assay: Antibacterial activity against VIM-1 producing Pseudomonas aeruginosa clone A1 isolate FG-17X-14 by Etest method
Klebsiella aerogenes = assay: Antibacterial activity against nonreplicate Enterobacter aerogenes clinical isolate by Etest method
Pseudomonas aeruginosa [6] = assay: Antibacterial activity against VIM-1 producing Pseudomonas aeruginosa clone A2 isolate NA-14X-26 by Etest method
Pseudomonas aeruginosa [7] = assay: Antibacterial activity against VIM-2 producing Pseudomonas aeruginosa clone B3 isolate CR-04X-14 by Etest method
Pseudomonas aeruginosa [8] = assay: Antibacterial activity against nonreplicate Pseudomonas aeruginosa clinical isolate by Etest method
Pseudomonas aeruginosa [9] = assay: Antibacterial activity against IMP-13 producing Pseudomonas aeruginosa clone C2 isolate NA-14X-10 by Etest method
Pseudomonas putida [10] = assay: Antibacterial activity against nonreplicate Pseudomonas putida clinical isolate by Etest method
Enterobacter cloacae [11] = assay: Antibacterial activity against nonreplicate Enterobacter cloacae clinical isolate by Etest method
Pseudomonas aeruginosa [12] = assay: Antibacterial activity against VIM-1 producing Pseudomonas aeruginosa clone D2 isolate VA-06X-16 by Etest method
Pseudomonas aeruginosa [13] = assay: Antibacterial activity against VIM-1 producing Pseudomonas aeruginosa clone D2 isolate VA-06X-17 by Etest method
Pseudomonas aeruginosa [14] = assay: Antibacterial activity against VIM-1 producing Pseudomonas aeruginosa clone D isolate VA-06X-69 by Etest method
Pseudomonas aeruginosa [15] = assay: Antibacterial activity against VIM-2 producing Pseudomonas aeruginosa clone B3 isolate PV-05X-02 by Etest method
Klebsiella pneumoniae = assay: Antibacterial activity against nonreplicate Klebsiella pneumoniae clinical isolate by Etest method
Pseudomonas aeruginosa [16] = assay: Antibacterial activity against IMP-13 producing Pseudomonas aeruginosa clone C3 isolate PG-12X-03 by Etest method
Pseudomonas aeruginosa [17] = assay: Antibacterial activity against VIM-1 producing Pseudomonas aeruginosa clone F isolate RM-11X-09 by Etest method
Pseudomonas aeruginosa [18] = assay: Antibacterial activity against IMP-13 producing Pseudomonas aeruginosa clone C2 isolate NA-14X-12 by Etest method
Pseudomonas aeruginosa [19] = assay: Antibacterial activity against VIM-1 producing Pseudomonas aeruginosa clone D4 isolate VA-06X-47 by Etest method
Pseudomonas aeruginosa [20] = assay: Antibacterial activity against VIM-2 producing Pseudomonas aeruginosa clone B2 isolate VA-06X-28 by Etest method
Pseudomonas aeruginosa [21] = assay: Antibacterial activity against IMP-13 producing Pseudomonas aeruginosa clone C1 isolate AV-13X-28 by Etest method
Pseudomonas aeruginosa [22] = assay: Antibacterial activity against VIM-1 producing Pseudomonas aeruginosa clone E isolate VA-06X-29 by Etest method
Pseudomonas aeruginosa [23] = assay: Antibacterial activity against VIM-2 producing Pseudomonas aeruginosa clone B1 isolate SS-09X-45 by Etest method
Pseudomonas aeruginosa [24] = assay: Antibacterial activity against VIM-2 producing Pseudomonas aeruginosa clone B3 isolate PV-05X-07 by Etest method
Pseudomonas aeruginosa [25] = assay: Antibacterial activity against IMP-13 producing Pseudomonas aeruginosa clone C2 isolate NA-14X-02 by Etest method
Acinetobacter baumannii = assay: Antibacterial activity against nonreplicate Acinetobacter baumannii clinical isolate by Etest method
Enterobacter cloacae [26] = assay: Antibacterial activity against VIM-1 producing Enterobacter cloacae isolate TO-16X-51 by Etest method
Proteus mirabilis = assay: Antibacterial activity against nonreplicate Proteus mirabilis clinical isolate by Etest method
Pseudomonas aeruginosa [27] = assay: Antibacterial activity against VIM-1 producing Pseudomonas aeruginosa clone A2 isolate NA-14X-32 by Etest method
Pseudomonas aeruginosa [28] = assay: Antibacterial activity against VIM-2 producing Pseudomonas aeruginosa clone B2 isolate VA-06X-20 by Etest method
Pseudomonas aeruginosa [29] = assay: Antibacterial activity against VIM-1 producing Pseudomonas aeruginosa clone A3 isolate FG-17X-08 by Etest method
Pseudomonas aeruginosa [30] = assay: Antibacterial activity against VIM-1 producing Pseudomonas aeruginosa clone A3 isolate NA-14X-34 by Etest method
Pseudomonas aeruginosa [31] = assay: Antibacterial activity against IMP-13 producing Pseudomonas aeruginosa clone C2 isolate NA-14X-11 by Etest method
Pseudomonas aeruginosa [32] = assay: Antibacterial activity against VIM-1 producing Pseudomonas aeruginosa clone G isolate NA-14X-13 by Etest method
Pseudomonas putida [33] = assay: Antibacterial activity against VIM-1 producing Pseudomonas putida isolate RM-11X-11 by Etest method
Pseudomonas aeruginosa [34] = assay: Antibacterial activity against VIM-1 producing Pseudomonas aeruginosa clone D3 isolate VA-06X-65 by Etest method

## C[C@@H](O)[C@H]1C(=O)N2C(C(=O)O)=C(SCCNC=N)C[C@H]12 [IMIPENEM ANHYDROUS]
Pseudomonas aeruginosa [1]
  MIC: > 32 µg/mL
Pseudomonas aeruginosa [2]
  MIC: > 32 µg/mL
Pseudomonas aeruginosa [3]
  MIC: > 32 µg/mL
[4]
  MIC: 8 µg/mL (≈ 26.7 µM)
Pseudomonas aeruginosa [5]
  MIC: > 32 µg/mL
Klebsiella aerogenes
  MIC: 16 µg/mL (≈ 53.4 µM)
Pseudomonas aeruginosa [6]
  MIC: > 32 µg/mL
Pseudomonas aeruginosa [7]
  MIC: > 32 µg/mL
Pseudomonas aeruginosa [8]
  MIC: 8 µg/mL (≈ 26.7 µM)
Pseudomonas aeruginosa [9]
  MIC: > 32 µg/mL
Pseudomonas putida [10]
  MIC: 16 µg/mL (≈ 53.4 µM)
Enterobacter cloacae [11]
  MIC: 4 µg/mL (≈ 13.4 µM)
Pseudomonas aeruginosa [12]
  MIC: > 32 µg/mL
Pseudomonas aeruginosa [13]
  MIC: > 32 µg/mL
Pseudomonas aeruginosa [14]
  MIC: > 32 µg/mL
Pseudomonas aeruginosa [15]
  MIC: > 32 µg/mL
Klebsiella pneumoniae
  MIC: 2 µg/mL (≈ 6.68 µM)
Pseudomonas aeruginosa [16]
  MIC: > 32 µg/mL
Pseudomonas aeruginosa [17]
  MIC: > 32 µg/mL
Pseudomonas aeruginosa [18]
  MIC: > 32 µg/mL
Pseudomonas aeruginosa [19]
  MIC: > 32 µg/mL
Pseudomonas aeruginosa [20]
  MIC: > 32 µg/mL
Pseudomonas aeruginosa [21]
  MIC: > 16 µg/mL
Pseudomonas aeruginosa [22]
  MIC: > 32 µg/mL
Pseudomonas aeruginosa [23]
  MIC: > 32 µg/mL
Pseudomonas aeruginosa [24]
  MIC: > 32 µg/mL
Pseudomonas aeruginosa [25]
  MIC: > 32 µg/mL
Acinetobacter baumannii
  MIC: 4 µg/mL (≈ 13.4 µM)
Enterobacter cloacae [26]
  MIC: 4 µg/mL (≈ 13.4 µM)
Proteus mirabilis
  MIC: 8 µg/mL (≈ 26.7 µM)
Pseudomonas aeruginosa [27]
  MIC: > 32 µg/mL
Pseudomonas aeruginosa [28]
  MIC: > 32 µg/mL
Pseudomonas aeruginosa [29]
  MIC: > 32 µg/mL
Pseudomonas aeruginosa [30]
  MIC: > 32 µg/mL
Pseudomonas aeruginosa [31]
  MIC: > 32 µg/mL
Pseudomonas aeruginosa [32]
  MIC: > 32 µg/mL
Pseudomonas putida [33]
  MIC: > 32 µg/mL
Pseudomonas aeruginosa [34]
  MIC: > 32 µg/mL
